Measurements from US9498463B2, “Compound obtained from gamboge resin, and medical uses of the same” (priority 2010, dated 2016).
In brackets after ≈: the same amount, converted by molar mass.

Columns and labels:
[1] = tested on: Human umbilical venal epithelial cell (HUVEC); assay: in vitro; settings: HUVEC, normal human cell line
Text: (§1) In Vitro Anti-Cancer Test
(§2) The in vitro anti-cancer test was primarily used to detect the effect of a candidate drug on cancer cell proliferation. The working principle involved therein is the ability of viable cells to shift alamarBlue (AbD Serotec, UK) from its originally non-fluorescent oxidized state (non-fluorescent, blue) to a reduced form (fluorescent, red) having fluorescence via metabolic reaction. According to the fluorescent data result generated by the alamarBlue reagent thus obtained, the proliferation of the viable cells and cell activity can be quantified for detection.
(§3) In the in vitro anti-cancer tests, a candidate drug was tested at 5 different concentrations of 0.01, 0.1, 1, 10, and 100 μg/ml, and six human cancer cell lines and a normal human cell line were used (see Table 5).

[2] = tested on: Human breast adenocarcinoma cell MCF7; assay: cells; settings: read-out: IC50 (50% inhibition concentration); MCF-7; positive control
Text: as §1, §2, §3

C=C(C)C1CC[C@@]2(C)Oc3c(CC=C(C)C)c4c(c(O)c3[C@@H]1C2O)C(=O)C1=C[C@@H]2CC3C(C)(C)OC(C/C=C(/C)C(=O)O)(C2=O)[C@@]13O4 (stereo in doubt) [Gh-1050, 2-butenoic acid, 2-methyl-4-[(1R,3aS,5S,9R,10S,13R,16aS,17S)-3a,4,5,7,10,11,12,13-octahydro-8,17-dihydroxy-3,3,13-trimethyl-15-(3-methyl-2-butenyl)-10-(1-methylethenyl)-7,18-dioxo-1,5:9,13-dimethano-1H,3H,9H-furo[3.4-g]oxocino[3.2-b]xanthen-1-yl]-,(2Z)-]
LC50 (50% lethal concentration) [1]: 3.4 µg/mL (≈ 5.27 µM)

CC(C)=CCc1c2c(c(O)c3c1O[C@]14C(=C[C@@H]5CC1C(C)(C)OC4(C/C=C(\C)C(=O)O)C5=O)C3=O)C=CC(C)(C/C=C\C(C)(C)O)O2 (stereo in doubt) [Gh-3332, 2-butenoic acid, 2-methyl-4-[(1R,3aS,5S,14aS)-3a,4,5,7-tetrahydro-8-hydroxy-3,3,11-trimethyl-13-(3-methyl-2-butenyl)-11-(4-hydroxy-4-methyl-2Z-pentenyl)-7,15-dioxo-1,5-methano-1H,3H,11H-furo[3.4-g]pyrano[3.2-b]xanthen-1-yl]-,(2E)-]
LC50 (50% lethal concentration) [1]: 3.3 µg/mL (≈ 5.12 µM)

CC(C)=CCc1c2c(c(O)c3c1O[C@]14C(=C[C@@H]5CC1C(C)(C)OC4(C/C=C(/C)C(=O)O)C5=O)C3=O)C=C[C@@](C)(C/C=C/C(C)(C)O)O2 [Gh-3272, 2-butenoic acid, 2-methyl-4-[(1R,3aS,5S,11R,14aS)-3a,4,5,7-tetrahydro-8-hydroxy-3,3,11-trimethyl-13-(3-methyl-2-butenyl)-11-(4-hydroxy-4-methyl-2E-pentenyl)-7,15-dioxo-1,5-methano-1H,3H,11H-furo[3.4-g]pyrano[3.2-b]xanthen-1-yl]-,(2Z)-]
LC50 (50% lethal concentration) [1]: 2.5 µg/mL (≈ 3.88 µM)

C=C(C)C(O)CC[C@]1(C)C=Cc2c(O)c3c(c(CC=C(C)C)c2O1)O[C@]12C(=C[C@@H]4CC1C(C)(C)OC2(C/C=C(/C)C(=O)O)C4=O)C3=O (stereo partly drawn) [Gh-3291, 2-butenoic acid, 2-methyl-4-[(1R,3aS,5S,11R,14aS)-3a,4,5,7-tetrahydro-8-hydroxy-3,3,11-trimethyl-13-(3-methyl-2-butenyl)-11-(3-hydroxy-4-methyl-4-pentenyl)-7,15-dioxo-1,5-methano-1H,3H,11H-furo[3.4-g]pyrano[3.2-b]xanthen-1-yl]-,(2Z)-]
LC50 (50% lethal concentration) [1]: 1.4 µg/mL (≈ 2.17 µM)

CC(C)=CCC[C@@]1(C)C=Cc2c(O)c3c(c(C(O)C4OC4(C)C)c2O1)O[C@]12C(=C[C@@H]4CC1C(C)(C)OC2(C/C=C(/C)C(=O)O)C4=O)C3=O (stereo partly drawn) [Gh-3311, 2-butenoic acid, 2-methyl-4-[(1R,3aS,5S,11S,14aS)-3a,4,5,7-tetrahydro-8-hydroxy-3,3,11-trimethyl-13-(1-hydroxy-2,3-epoxy-3-methylbutyl)-11-(4-methyl-3-pentenyl)-7,15-dioxo-1,5-methano-1H,3H,11H-furo[3.4-g]pyrano[3.2-b]xanthen-1-yl]-,(2Z)-]
LC50 (50% lethal concentration) [1]: 13.9 µg/mL (≈ 21 µM)

CC(C)=CCC[C@@]1(C)C=Cc2c(O)c3c(c(CC4OC4(C)C)c2O1)O[C@]12C(=C[C@@H]4CC1C(C)(C)OC2(C/C=C(/C)C(=O)O)C4=O)C3=O (stereo partly drawn) [Gh-3351, 2-butenoic acid, 2-methyl-4-[(1R,3aS,5S,11S,14aS)-3a,4,5,7-tetrahydro-8-hydroxy-3,3,11-trimethyl-13-(2,3-epoxy-3-methylbutyl)-11-(4-methyl-3-pentenyl)-7,15-dioxo-1,5-methano-1H,3H,11H-furo[3.4-g]pyrano[3.2-b]xanthen-1-yl]-,(2Z)-]
LC50 (50% lethal concentration) [1]: 3.3 µg/mL (≈ 5.12 µM)

CO[C@@]12[C@H](COC(N)=O)C3=C(C(=O)C(C)=C(N)C3=O)N1C[C@@H]1N[C@@H]12 [Mitomycin, mitomycin, reference compound]
IC50 [2]: 150 nM
